Tests used:
[1] = test system: K562 (Chronic Myeloid Leukemia) cells; assay: Cellular growth assay (MTT), K562; assay type: cell-based; details: Homo sapiens, 40 hr incubation, read-out: K562 (inhibition of 50% of cellular growth)
Protocol: (§1) K562 (Chronic Myeloid Leukemia), PC3 (Prostate Cancer), and DU145 (Prostate Cancer) were obtained from the American Type Culture Collection (ATCC). K562 was grown in RPMI, with 10% FBS with Glutamx added. DU145 cells were cultured in DMED, with 10% FBS and Glutamx and MEM non-essential amino acids added. PC3 cells were grown in F12K medium, with 10% FBS and Glutamx and MEM non-essential amino acids added. All cells were grown at 37° C. in 5% CO2.

[2] = test system: PC3 (Prostate Cancer) cells; assay: Cellular growth assay (MTT), PC3; assay type: cell-based; details: Homo sapiens, PC-3, 40 hr incubation, read-out: PC3 (inhibition of 50% of cellular growth)
Protocol: as §1

TelJak3 = TelJak3 (Homo sapiens, UniProt P52333); assay: Cellular growth assay (MTT), BaF3 TEL/JAK3 cells; assay type: cell-based; details: 40 hr incubation, read-out: TelJak3 (inhibition of 50% of cellular growth)
TelJak2 = TelJak2 (Homo sapiens, UniProt O60674); assay: Cellular growth assay (MTT), BaF3 TEL/JAK2 cells; assay type: cell-based; details: 40 hr incubation, read-out: TelJak2 (inhibition of 50% of cellular growth)
[3] = test system: DU145 (Prostate Cancer) cells; assay: Cellular growth assay (MTT), DU145; assay type: cell-based; details: Homo sapiens, DU-145, 40 hr incubation, read-out: DU145 (inhibition of 50% of cellular growth)
Protocol: as §1

Tubulin = Tubulin assay (turbidometric microtubule assembly); assay type: biochemical; details: at 50 μM, absorbance at 340 nm, 37° C.
Protocol: Turbidometric assays of microtubule assembly were performed by incubating microtubule protein in cuvettes at 37° C. in a thermostatically controlled spectrophotometer measuring the change in absorbance at 340 nm over time. The microtubule protein was incubated with the each test compound at 0° C. and polymerisation was initiated by addition of 1 mM GTP, prior to heating to 37° C.

Chain of TelJak2 (O60674 with tags, fused parts or gaps): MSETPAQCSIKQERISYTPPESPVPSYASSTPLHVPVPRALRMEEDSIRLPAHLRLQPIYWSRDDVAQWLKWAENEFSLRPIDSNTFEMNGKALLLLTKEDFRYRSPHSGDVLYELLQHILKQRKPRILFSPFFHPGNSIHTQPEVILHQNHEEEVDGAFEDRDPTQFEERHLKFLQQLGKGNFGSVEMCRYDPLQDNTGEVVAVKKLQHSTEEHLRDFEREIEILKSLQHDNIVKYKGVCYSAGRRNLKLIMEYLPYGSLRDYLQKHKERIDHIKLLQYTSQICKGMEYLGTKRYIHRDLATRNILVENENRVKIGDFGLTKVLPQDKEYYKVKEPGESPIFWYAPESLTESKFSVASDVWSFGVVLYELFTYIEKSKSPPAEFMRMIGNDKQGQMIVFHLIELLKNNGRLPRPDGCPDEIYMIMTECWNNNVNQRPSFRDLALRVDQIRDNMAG
Chain of TelJak3 (P52333 with tags, fused parts or gaps): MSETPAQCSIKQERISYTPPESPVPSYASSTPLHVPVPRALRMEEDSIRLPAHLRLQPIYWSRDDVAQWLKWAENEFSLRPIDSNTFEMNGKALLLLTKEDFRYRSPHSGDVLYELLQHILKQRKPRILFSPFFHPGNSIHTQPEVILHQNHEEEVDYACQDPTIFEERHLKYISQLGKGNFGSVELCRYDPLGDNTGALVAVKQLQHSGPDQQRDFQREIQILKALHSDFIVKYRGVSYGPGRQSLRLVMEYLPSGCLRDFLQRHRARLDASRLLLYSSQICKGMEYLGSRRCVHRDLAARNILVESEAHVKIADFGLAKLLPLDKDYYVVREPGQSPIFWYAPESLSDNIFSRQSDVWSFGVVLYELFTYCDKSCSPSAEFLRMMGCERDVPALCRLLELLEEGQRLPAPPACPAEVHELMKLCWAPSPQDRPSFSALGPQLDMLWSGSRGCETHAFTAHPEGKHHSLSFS

Row | Structure (SMILES) | IC50 [1] [µM] | IC50 [2] [µM] | IC50 (TelJak3) [µM] | IC50 (TelJak2) [µM] | IC50 [3] [µM] | Tubulin (inhibition of tubulin polymerisation) (Tubulin)
1 | CCCC(Nc1cncc(-c2ccc(O)c(OC)c2)n1)c1cccc(OC)c1 (centres unmarked) | ≤ 20 | ≤ 20 | ≤ 20 | ≤ 20 | ≤ 20 | + (inhibited tubulin polymerisation by greater than 50% at 50 μM)
2 | COc1cc(-c2cncc(NC(CC(C)C)c3ccccc3)n2)ccc1O (centres unmarked) | ≤ 20 | > 20 | ≤ 20 | ≤ 20 | > 20 | 
3 | CCCC(Nc1cncc(-c2ccc(O)c(OC)c2)n1)c1ccc(O)cc1 (centres unmarked) | > 20 | > 20 | ≤ 20 | ≤ 20 | > 20 | 
4 | CCCC(Nc1cncc(-c2ccc(O)c(OC)c2)n1)c1ccc(SC)cc1 (centres unmarked) | ≤ 20 | > 20 | ≤ 20 | ≤ 20 | > 20 | 
5 | CCCC(Nc1cncc(-c2cc(OC)c(OC)c(OC)c2)n1)c1ccccc1 (centres unmarked) | ≤ 20 | > 20 | ≤ 20 | ≤ 20 | ≤ 20 | 
6 | CCCC(Nc1cncc(-c2cccc(OC)c2)n1)c1ccccc1 (centres unmarked) | ≤ 20 | > 20 | ≤ 20 | ≤ 20 | > 20 | 
7 | COc1cc(-c2cncc(NC(CCO)c3ccccc3)n2)ccc1O (centres unmarked) | > 20 | > 20 | ≤ 20 | ≤ 20 | > 20 | 
8 | CCCC(Nc1cncc(-c2ccc(O)c(OC)c2)n1)c1ccc(N(CC)CC)cc1 (centres unmarked) | > 20 | > 20 | ≤ 20 | ≤ 20 | ≤ 20 | 
9 | CCCC(Nc1cncc(-c2ccc(O)c(OC)c2)n1)c1ccc(OC)c(OC)c1 (centres unmarked) | ≤ 20 | > 20 | ≤ 20 | ≤ 20 | ≤ 20 | 
10 | CCCC(Nc1cncc(-c2ccc(N)c(OC)c2)n1)c1ccc(F)cc1 (centres unmarked) | ≤ 20 | ≤ 20 | ≤ 20 | ≤ 20 | ≤ 20 | + (inhibited tubulin polymerisation by greater than 50% at 50 μM)
11 | CCCC(Nc1cncc(-c2ccc(O)c(OC)c2)n1)c1cccc(N)c1 (centres unmarked) | ≤ 20 | ≤ 20 | ≤ 20 | ≤ 20 | > 20 | + (inhibited tubulin polymerisation by greater than 50% at 50 μM)
12 | CCCC(Nc1cncc(-c2ccc(O)c(OC)c2)n1)c1cccc(NC(C)=O)c1 (centres unmarked) | ≤ 20 | > 20 | ≤ 20 | ≤ 20 | > 20 | 
13 | CCCC(Nc1cncc(-c2ccc(O)c(OC)c2)n1)c1cccc(C#N)c1 (centres unmarked) | ≤ 20 | ≤ 20 | ≤ 20 | ≤ 20 | > 20 | 
14 | CCCC(Nc1cncc(-c2ccc(NS(C)(=O)=O)c(OC)c2)n1)c1ccc(F)cc1 (centres unmarked) | ≤ 20 | ≤ 20 | ≤ 20 | ≤ 20 | > 20 | 
15 | CCC[C@H](Nc1cncc(-c2ccc(O)c(OC)c2)n1)c1cccnc1 | ≤ 20 | ≤ 20 | ≤ 20 | ≤ 20 | ≤ 20 | + (inhibited tubulin polymerisation by greater than 50% at 50 μM)
16 | CCCC(Nc1nc(-c2ccc(O)c(OC)c2)cnc1C)c1ccccc1 (centres unmarked) | ≤ 20 | ≤ 20 | ≤ 20 | ≤ 20 | ≤ 20 | + (inhibited tubulin polymerisation by greater than 50% at 50 μM)
17 | CCCC(Nc1cncc(-c2ccc3c(c2)OCO3)n1)c1cccnc1 (centres unmarked) | ≤ 20 | > 20 | ≤ 20 | ≤ 20 | > 20 | 
18 | CCCC(Nc1cncc(-c2ccc(O)c(OC)c2)n1)c1cccc([C@H](O)OCCOCC)c1 (some centres unmarked) | ≤ 20 | > 20 | ≤ 20 | ≤ 20 | > 20 | 
19 | CCCOC(=O)c1cccc(C(CCC)Nc2cncc(-c3ccc(O)c(OC)c3)n2)c1 (centres unmarked) | ≤ 20 | ≤ 20 | ≤ 20 | ≤ 20 | > 20 | 
20 | CCCC(Nc1cncc(-c2ccc(O)c(OC)c2)n1)c1cccc(F)c1F (centres unmarked) | ≤ 20 | > 20 | ≤ 20 | ≤ 20 | > 20 | 
21 | CCCC(Nc1cncc(-c2ccc(O)c(OC)c2)n1)c1ccc(Cl)c(F)c1 (centres unmarked) | ≤ 20 | > 20 | ≤ 20 | ≤ 20 | > 20 | 
22 | CCCC(Nc1cncc(-c2ccc(O)c(OCC)c2)n1)c1cccc(F)c1 (centres unmarked) | ≤ 20 | ≤ 20 | ≤ 20 | ≤ 20 | > 20 | 

Row | Structure (SMILES) | IC50 [1] [µM] | IC50 [2] [µM] | IC50 (TelJak3) [µM] | IC50 (TelJak2) [µM] | IC50 [3] [µM] | Tubulin (inhibition of tubulin polymerisation) (Tubulin)
23 | CCCC(Nc1cncc(-c2ccc(O)c(OC)c2)n1)c1cccc(OC(F)(F)F)c1 (centres unmarked) | ≤ 20 | > 20 | ≤ 20 | ≤ 20 | > 20 | 
24 | CCCC(Nc1nc(-c2ccc(O)c(OC)c2)cnc1N)c1cccc(F)c1 (centres unmarked) | ≤ 20 | > 20 | ≤ 20 | ≤ 20 | > 20 | 
25 | CCCC(Nc1cncc(-c2ccc(O)c(OC)c2)n1)c1cc(F)ccc1F (centres unmarked) | ≤ 20 | > 20 | ≤ 20 | ≤ 20 | > 20 | 
26 | CCCC(Nc1cncc(-c2ccc(O)c(OC)c2)n1)c1cccc(C(=O)NC)c1 (centres unmarked) | ≤ 20 | > 20 | ≤ 20 | ≤ 20 | > 20 | 
27 | CCCC(Nc1cncc(-c2ccc(O)c(OC)c2)n1)c1cccc(C(=O)NC(C)C2CC2)c1 (centres unmarked) | ≤ 20 | > 20 | ≤ 20 | ≤ 20 | > 20 | 
28 | CCCC(Nc1cncc(-c2ccc(O)c(OC)c2)n1)c1cccc(C(=O)NCCN(C)C)c1 (centres unmarked) | ≤ 20 | ≤ 20 | ≤ 20 | ≤ 20 | > 20 | 
29 | CCCC(Nc1cncc(-c2ccc(O)c(OC)c2)n1)c1cccc(C(=O)NCc2cccnc2)c1 (centres unmarked) | ≤ 20 | > 20 | ≤ 20 | ≤ 20 | > 20 | 
30 | CCCC(Nc1cncc(-c2ccc(O)c(OC)c2)n1)c1ccncc1 (centres unmarked) | ≤ 20 |  | ≤ 20 | ≤ 20 | > 20 | 
31 | CCCC(Nc1cncc(-c2ccc(O)c(OCC)c2)n1)c1cncc(C)c1 (centres unmarked) | ≤ 20 | ≤ 20 | ≤ 20 | ≤ 20 | > 20 | 
32 | CCCC(Nc1cncc(-c2ccc(NC(C)=O)c(OC)c2)n1)c1cncc(C)c1 (centres unmarked) | ≤ 20 | > 20 | ≤ 20 | ≤ 20 | ≤ 20 | 
33 | CCCC(Nc1cncc(-c2ccc(O)c(OCC)c2)n1)c1cccnc1 (centres unmarked) | ≤ 20 | ≤ 20 | ≤ 20 | ≤ 20 | > 20 | 
34 | COc1cc(-c2cncc(NC(CCC3OCCO3)c3cccc(Cl)c3)n2)ccc1O (centres unmarked) | ≤ 20 | > 20 | ≤ 20 | ≤ 20 | > 20 | 
35 | CCCC(Nc1cncc(-c2cc(OC)c(O)c(OC)c2)n1)c1ccccc1 (centres unmarked) | > 20 | > 20 | ≤ 20 | ≤ 20 | > 20 | 
36 | CCCC(Nc1cncc(-c2ccc(NC(C)=O)c(OC)c2)n1)c1cccnc1 (centres unmarked) | ≤ 20 | ≤ 20 | ≤ 20 | ≤ 20 | > 20 | 
37 | CCCC(Nc1cncc(-c2ccc(N)c(OC)c2)n1)c1ccccc1 (centres unmarked) | ≤ 20 | > 20 | ≤ 20 | ≤ 20 | > 20 | 
38 | CCCC(=O)Nc1ccc(-c2cncc(NC(CCC)c3cccnc3)n2)cc1OC (centres unmarked) | ≤ 20 | ≤ 20 | ≤ 20 | ≤ 20 |  | 
39 | CCC[C@H](Nc1cncc(-c2ccc(NC(C)=O)c(OC)c2)n1)c1ccccc1 |  | > 20 | ≤ 20 | ≤ 20 |  | 
40 | CCN(CC)CCCC(Nc1cncc(-c2ccc(O)c(OC)c2)n1)c1ccccc1 (centres unmarked) | > 20 | > 20 | ≤ 20 | ≤ 20 | > 20 | 
41 | CCN(CC)CCCCC(Nc1cncc(-c2ccc(O)c(OC)c2)n1)c1ccccc1 (centres unmarked) | > 20 | > 20 | ≤ 20 | ≤ 20 | ≤ 20 | 
42 | COc1cc(-c2cncc(NC(CCCCN3CCOCC3)c3ccccc3)n2)ccc1O (centres unmarked) | > 20 | > 20 | ≤ 20 | ≤ 20 | > 20 | 
43 | CCC[C@H](Nc1cncc(-c2ccc(NCC)c(OC)c2)n1)c1ccccc1 | ≤ 20 | ≤ 20 | ≤ 20 | ≤ 20 | > 20 | 
44 | COc1cc(-c2cncc(NC(C)c3ccccn3)n2)ccc1O (centres unmarked) | > 20 | > 20 | ≤ 20 | ≤ 20 | > 20 | 

From patent publication US8084456B2, “Pyrazine-based tubulin inhibitors” (YM Biosciences Australia Pty Ltd, priority 2002, dated 2011)
